# Test system: Bacillus atrophaeus
# Assay: Dark and uv biocidal activity
# Format: cell-based
structure (smiles),measurement,setting,value
C[N+](C)(C)CCCOc1ccc(C#Cc2ccc(C#Cc3ccc(OCCC[N+](C)(C)C)cc3)cc2)cc1 [S-OPE-EO],killing under uv,"365 nm uv light, 30 minutes",almost the same level killing
same,killing in the dark,"dark, 6 hour exposure",several log kills
same,biocidal activity,in the dark and upon uv irradiation,remarkable biocidal activity

# — patent US8753570B2, “Structure, synthesis, and applications for oligo phenylene ethynylenes” (STC.UNM, priority 2008, dated 2014)
